Assay results published in patent US7456156B2, “Aryl boronic acids for treating obesity” (Genzyme Corporation, priority 2001, dated 2008).

Test system: fat absorption through lipase inhibition
Test: In vivo infusion assay in rats (olive oil gavage, triglyceride recovered from intestinal contents)
Details: rats gavaged with 4 mL olive oil emulsion with drug after 18 hour fast, intestinal contents after 8 hours; for In Vivo Infusion Assay in Rats ED50 (mg/g fat) or estimate: dose at half the maximum recoverable triglyceride
Procedure: Test compounds were dissolved in DMSO or dionized water. […] Samples were stored at −80° C. until lyophilization.
3 milliliters of hexane was added to each tube then it was capped and vortexed for 15 seconds at high speed. 3 milliliters of 1 N HCl was added then samples were subjected to wrist-action shaking for 1 hour.
The data was expressed as follows. […] The milligrams/liters values obtained from the HPLC analysis were entered.

Row | Compound | In Vivo Infusion Assay in Rats ED50 (mg/g fat) or estimate [mg/g fat] | In Vivo Infusion Assay in Rats Ed50 (mg/kg body wt) or estimate (dose per body weight) [mg/kg body wt] | ED50 (Rattus norvegicus, po, dose per body weight, read-out: In Vivo Infusion Assay in Rats Ed50 (mg/kg body wt) or estimate) [mg/kg]
1 | 4-(14′-trimethylammonium-3′-thia-1′-keto-tridecyl)-3-fluorophenyl-boronic acid bromide | 2 | 15 | 
2 | 4-(14′-triethylammonium-3′-thia-1′-keto-tetradecyl)-3-phenyl-boronic acid bromide | 11 | 82.5 | 
3 | C[N+](C)(C)CCCCCCCCCCCSCC(=O)c1ccc(B(O)O)cc1 [4-(14′-trimethylammonium-3′-thia-1′-keto-tetradecyl)-phenyl-boronic acid bromide] | 8 |  | 60
